Experimental data reported in US11478558B2, “Prostate-specific membrane antigen targeted high-affinity agents for endoradiotherapy of prostate cancer” (The Johns Hopkins University, priority 2017, dated 2022).
Like-named read-outs stand apart in the source and are kept apart here.

Tests used:
PSMA(+) PC3 PIP cells = assay: Cell uptake, cell surface binding and internalization in PSMA(+) PC3 PIP cells; type: cell-based, human
[1] = test system: PSMA(+) PC3 PIP and PSMA(−) PC3 flu tumor xenografts; assay: Biodistribution of 177Lu compounds (Example 5)
PSMA(−) PC3 flu cells = assay: Cell uptake in PSMA(−) PC3 flu cells; type: cell-based, human
PSMA+ PC3 PIP tumors = assay: Radiopharmaceutical therapy in PC3 PIP flank tumor growth delay model; type: in vivo, NOD/SCID mice
Description: A pilot treatment study using NOD/SCID mice (n=10 per group) bearing PSMA+ PC3 PIP tumors with a single intravenous dose of 111 MBq (3 mCi) of agents ^177Lu-PSMA-617, ^177Lu-1, ^177Lu-3 and ^177Lu-5 and the control group (with saline treatment) were performed (Table 8). Volume of the all control group mice reached >5-fold of their initial tumor volume within 14 days. Mouse euthanized for treated group within 4 weeks of post-injection was mainly due to sudden body weight loss and not related to tumor growth. […] The difference among treatment groups was statistically significant (P=0.002) by the log-rank test compared to the untreated group. […] After 8-weeks, three mice from each treated group were used for detailed blood analysis and necropsy study. All animals underwent radiotherapy study had normal creatinine (0.3-0.4 mg/dL) and blood urea nitrogen levels. […] Additionally, a significant lowering of platelet for all three treated mice from ^177Lu-PSMA-617 compared control group and other treated groups.
Median survival for the ^177Lu-PSMA-617 was 133 days vs. 234 days for ^177Lu-1.
The remaining treated mice survived tumor-free for 10 months and were evaluated for toxicity.
Antitumor efficacy studies were performed in PC3 PIP flank tumor growth delay model to evaluate the therapeutic efficacy of a single dose intravenous injection of ^177Lu-L1, ^177Lu-L3, ^177Lu-L5 and ^177Lu-PSMA-617 vs. saline. This was a head-to-head comparison study and same batch of tumor-bearing mice and radioactivity. The study was commenced 14-18 days post-inoculation of the xenografts, when all the mice had tumor volume of about ˜60-85 mm^3 (Table 8). All the living mice were monitored for 8 weeks to monitor the growth delay. Mice body weight and tumor volume were monitored every 3 days throughout the experiment. Endpoint criteria defined by the institute ACUC was weight loss≥15%, a tumor volume>1800 mm^3, active ulceration of the tumor or abnormal behavior indicating pain or unease. After 8-weeks, three mice from each group were submitted for detail necropsy and blood analysis. Mice group treated with ^177Lu-1 and ^177Lu-PSMA-617 were continued to monitor until the endpoint. These definitions were also used for Kaplan-Meier analysis. The probability of reaching 5 times the initial tumor volume was characterized using Kaplan-Meier curves, and comparison was performed using the log-rank test. The formula used for calculation of tumor volume was V=width^2×length/2. Toxicity of the ^177Lu-treatment groups after 8-weeks and in healthy CD-1 (n=3) mice treated with 111 MBq was evaluated by pathologic examination at the Johns Hopkins Pathology Core facility with serum metabolic panel, blood counts, and full necropsy including detailed histopathology of kidneys, salivary glands and lacrimal glands.

For O=C(O)CC[C@H](NC(=O)N[C@@H](CCCCN(Cc1ccc(Br)cc1)C(=O)CCCCNC(=O)CN1CCN(CC(=O)O)CCN(CC(=O)O)CCN(CC(=O)O)CC1)C(=O)O)C(=O)O [Ligand L1, (14S,18S)-9-(4-Bromobenzyl)-2,8,16-trioxo-1-(4,7,10-tris(carboxymethyl)-1,4,7,10-tetraazacyclododecan-1-yl)-3,9,15,17-tetraazaicosane-14,18,20-tricarboxylic acid], the “Specific Cell Surface Binding” value (PSMA(+) PC3 PIP cells) was 36.49 ± 0.50 % IA/10^6 cells and the specific internalization (PSMA(+) PC3 PIP cells) was 23.68 ± 0.16 % IA/10^6 cells.

For O=C(O)CC[C@H](NC(=O)N[C@@H](CCCCNC(=O)CCCCCCC(=O)NCCCC[C@H](NC(=O)[C@@H](CCCCNC(=O)CCCc1ccc(I)cc1)NC(=O)CN1CCN(CC(=O)O)CCN(CC(=O)O)CCN(CC(=O)O)CC1)C(=O)O)C(=O)O)C(=O)O [Ligand L14, (3S,7S,26S,29R)-38-(4-iodophenyl)-5,13,20,28,35-pentaoxo-29-(2-(4,7,10-tris(carboxymethyl)-1,4,7,10-tetraazacyclododecan-1-yl)acetamido)-4,6,12,21,27,34-hexaazaoctatriacontane-1,3,7,26-tetracarboxylic acid], the “Specific Cell Surface Binding” value (PSMA(+) PC3 PIP cells) was 53.0 ± 1.3 % IA/10^6 cells.

O=C(O)CC[C@H](NC(=O)N[C@@H](CCCCNC(=O)CCCCCCC(=O)NCCCC[C@@H](NC(=O)[C@@H](Cc1ccccc1)NC(=O)[C@@H](Cc1ccc(O)c(I)c1)NC(=O)CCC(C(=O)O)N1CCN(CC(=O)O)CCN(CC(=O)O)CCN(CC(=O)O)CC1)C(=O)O)C(=O)O)C(=O)O (stereo partly shown) [PSMA I&T, reference compound] was tested, and the “Specific Cell Surface Binding” value (PSMA(+) PC3 PIP cells; Table 6) was 64.5 ± 2.3 % IA/10^6 cells and the specific internalization (PSMA(+) PC3 PIP cells; Table 6) was 21.1 ± 0.7 % IA/10^6 cells.

O=C(O)CC[C@H](NC(=O)N[C@@H](CCCCNC(=O)[C@H](Cc1ccc2ccccc2c1)NC(=O)[C@H]1CC[C@H](CNC(=O)CN2CCN(CC(=O)O)CCN(CC(=O)O)CCN(CC(=O)O)CC2)CC1)C(=O)O)C(=O)O [PSMA-617, reference compound] was tested, and the “Specific Cell Surface Binding” value (PSMA(+) PC3 PIP cells) was 44.6 ± 1.0 % IA/10^6 cells and the specific internalization (PSMA(+) PC3 PIP cells) was 21.1 ± 0.9 % IA/10^6 cells.

For O=C([O-])CN1CCN(CC(=O)[O-])CCN(CC(=O)N[C@H](CCCCNC(=O)CCCc2ccc(I)cc2)C(=O)N[C@@H](CCCCNC(=O)CCCCCCC(=O)NCCCC[C@H](NC(=O)N[C@@H](CCC(=O)O)C(=O)O)C(=O)O)C(=O)O)CCN(CC(=O)[O-])CC1.[177Lu+3] [^177Lu-14], the Kidney uptake ([1]; 48 h) was 17.47±4.18 % ID/g, the blood uptake ([1]; 48 h) was 2.48±0.44 % ID/g and the initial kidney uptake ([1]; time not given) was 49.49±19.55 % ID/g. For the same compound, the “fold clearance of kidney activity” value ([1]; to 48 h) was roughly 3 fold.

In the case of O=C([O-])CN1CCN(CC(=O)[O-])CCN(CC(=O)NCc2ccc(C(=O)NCCCCCC(=O)N(CCCC[C@H](NC(=O)N[C@@H](CCC(=O)O)C(=O)O)C(=O)O)Cc3ccc(Br)cc3)cc2)CCN(CC(=O)[O-])CC1.[177Lu+3] [^177Lu-L3], the “Cell uptake PC3 flu” value (PSMA(−) PC3 flu cells; 1 h) is reported as 0.1 ± 0.0 % incubated dose per 1 x 10^6 cells, the “Cell uptake PC3 flu” value (PSMA(−) PC3 flu cells; 2 h) is reported as 0.1 ± 0.0 % incubated dose per 1 x 10^6 cells and the “Cell uptake PC3 flu” value (PSMA(−) PC3 flu cells; 4 h) is reported as 0.1 ± 0.1 % incubated dose per 1 x 10^6 cells. The “Cell uptake PC3 flu” value (PSMA(−) PC3 flu cells; 24 h) was 0.1 ± 0.0 % incubated dose per 1 x 10^6 cells, the “Median survival After 8 weeks post-treatment” value (PSMA+ PC3 PIP tumors; 111 MBq) was “Not reached” and the “Tumors above stated relative tumor growth after week 8 post-treatment (Vt/V0)” value (PSMA+ PC3 PIP tumors; 111 MBq) was “Two tumor > 4”. The “Mouse death (number of mice)” value (PSMA+ PC3 PIP tumors; 111 MBq, up to week 8 post-treatment) was “Mouse death 3”, the “Average final body weight” value (PSMA+ PC3 PIP tumors; single i.v. dose 111 MBq (3 mCi)) was 25.8 ± 2.6 gram and the “Cell uptake PC3 PIP” value (PSMA(+) PC3 PIP cells; 1 h) was 27.0 ± 1.3 % incubated dose per 1 x 10^6 cells. The “PC3 PIP cell Int (internalization)” value (PSMA(+) PC3 PIP cells; 1 h) was 21.4 ± 1.4 % incubated dose per 1 x 10^6 cells, the “Blockade PC3 PIP” value (PSMA(+) PC3 PIP cells; 1 h, ZJ43 10 μM) was 0.1 ± 0.0 % incubated dose per 1 x 10^6 cells and the “total uptake within the PSMA(+) PC3 PIP cells” value (PSMA(+) PC3 PIP cells; 1 h to 24 h) was ~30 % of the incubated dose. The “Cell uptake PC3 PIP” value (PSMA(+) PC3 PIP cells; 2 h) was 36.5 ± 0.3 % incubated dose per 1 x 10^6 cells, the “PC3 PIP, line without name (position of cell internalization)” value (PSMA(+) PC3 PIP cells; 2 h) was 23.7 ± 0.2 % incubated dose per 1 x 10^6 cells and the “Cell uptake PC3 PIP” value (PSMA(+) PC3 PIP cells; 4 h) was 32.6 ± 8.5 % incubated dose per 1 x 10^6 cells. For the same compound, the “PC3 PIP cell int (internalization)” value (PSMA(+) PC3 PIP cells; 4 h) was 24.9 ± 3.4 % incubated dose per 1 x 10^6 cells, the “Cell uptake PC3 PIP” value (PSMA(+) PC3 PIP cells; 24 h) was 45.2 ± 1.2 % incubated dose per 1 x 10^6 cells and the “PC3 PIP cell int (internalization)” value (PSMA(+) PC3 PIP cells; 24 h) was 30.0 ± 0.7 % incubated dose per 1 x 10^6 cells.

With O=C([O-])CN1CCN(CC(=O)[O-])CCN(CC(=O)O)C(Cc2ccc(NC(=S)NCCCCC(=O)NCCCC[C@H](NC(=O)N[C@@H](CCC(=O)O)C(=O)O)C(=O)O)cc2)CN(CC(=O)[O-])CC1.[177Lu+3] (stereo partly shown) [^177Lu-L7] the “PSMA(+) PC3 PIP tumor uptake” value ([1]; 2 h) was 25.4±7.2 % ID/g, the “PSMA(+) PC3 PIP tumor uptake” value ([1]; 24 h post-injection) was 7.0±1.5 % ID/g and the “PSMA(+) PC3 PIP tumor uptake” value ([1]; 48 h) was 7.0±3.3 % ID/g. For the same compound, the “PSMA(+) PC3 PIP tumor uptake” value ([1]; fourth time point, time not given) was 2.3±0.0 % ID/g.

In the case of O=C([O-])CN1CCN(CC(=O)[O-])CCN(CC(=O)NCC2CCC(C(=O)N(CCCCC(NC(=O)NC(CCC(=O)O)C(=O)O)C(=O)O)Cc3ccc(Br)cc3)CC2)CCN(CC(=O)[O-])CC1.[177Lu+3] (stereo not shown) [^177Lu-L11], the “fold lower uptake compared to 177Lu-L1” value (PSMA(+) PC3 PIP cells) is reported as greater than 1.5 fold.
